Where two headings read alike, the source gives them in different places.

Test [1] has as its system RBL-2H3 cell line. The test is described as follows: Chelate permeability: fluorescence of cytoplasm and membrane fractions. Type of test: cell-based, rat. On the procedure:
Tb-PCTMB (Tb(III) 3,6,9-tris(methylene phosphonic acid n-butyl ester)-3,6,9,15-tetraazabicyclo[9.3.1]pentadeca-1(15),11,13-triene) was tested for permeability to abnormal and disease-state cells.
RBL-2H3 is a rat basophilic leukemia cell line. These cells were grown in Iscove's Medium supplemented with 2 mM L-glutamnine, penicillin/streptomycin (100 IU/mL, 100 μg/mL) and 10% FBS. Cells were maintained at 5% CO2 and 95% humidity. PZ-HPV-7 cell line was derived from epithelial cells cultured from normal prostate tissue. They were grown in Keratinocyte-Serum Free Medium with human recombinant EGF and bovine pituitary extract supplemented with 50 μg/mL gentamicin and penicillin/streptomycin (100 IU/mL, 100 μg/mL). All media and supplements were purchased from Gibco BRL (Grand Island, N.Y., USA). All cell lines were obtained from ATCC and were maintained at 37° C., 5% CO2 and 95% humidity.
Cells were grown to confluence in T-150 flasks (about 2×10^6 cells). […] Cells were then removed from the flask by manual scraping. Cells were transferred to a 50-mL conical tube and centrifuged (400×g) for 5 minutes and the test material removed.
Cells were grown as described herein (Example 1). Cells were grown to confluence in T-150 flask (about 2×10^6 cells). […] Cells were then removed from the flask by manual scraping. Cells were transferred to a 50-mL conical tube and centrifuged (400×g) for 5 minutes and the test material removed.
Furthermore, one analogue, QCTMP (FIG. 26), having lesser lipophilic character (a free phosphonic acid moiety) was evaluated. […] In this study, the cytoplasm and membrane fractions were extracted by Mem-PER Eukaryotic Membrane Protein Extraction Reagent Kit as described by the manufacturers (Pierce Biotechnology, Rockford, Ill.) and analyzed by a Fluor-S Multilmager.

For test [2], the system named is DMBA-induced tumor tissue of buccal cheek pouch. The settings on record: 2 mM solution topical, 10 minutes; for Fluorescence/mg Cytoplasm / Fluorescence/mg Membrane: readings Adjusted Volume CNT*mm2.

As to `CCOP(=O)([O-])CN1CCN(Cc2ccc3cc(C)ccc3n2)CCN(CP(=O)([O-])OCC)CCN(CP(=O)([O-])OCC)CC1.[Eu+3]` [Eu-QCTME, Eu(III) N-(6-methyl-2-quinolylmethyl)-N′,N″,N′″-tris(methylenephosphonic acid ethyl ester)-1,4,7,10-tetraazacyclododecane], the “fluorescence in the membrane fractions, dose response” value in test [1] (0-2000 μM, 2 hours) is “detectable quantity of fluorescence”. For the same compound, in test [1] (0-2000 μM, 2 hours, compared to PZ-HPV-7), the “fluorescence in the cytoplasm, dose response” value is “significant increases in fluorescence”. Besides, the “Fluorescence/mg Cytoplasm” value in test [1] (1 mM chelate, 2 h, Table 4) is reported as 4415; in test [2] (Tumor 1), 3524; in test [2] (Tumor 2), 3659. The “Fluorescence/mg Membrane” value in test [1] (1 mM chelate, 2 h, Table 4) is listed as 2644; in test [2] (Tumor 1), 1670; in test [2] (Tumor 2), 1676. Also, the “fluorescence in the cytoplasm of tumor tissue compared to normal tissue” value in test [2] is on record as “significantly greater fluorescence”.

These data come from US20060210479A1 (Dow Global Technologies Inc., priority 2004, published 2006).
